Experimental data reported in patent US8501806B2, “Methods for preventing or reducing colon carcinogenesis” (Nogra Pharma Limited, priority 2008, dated 2013).

Tests used:
4T1-derived metastasis = assay: 4T1 spontaneous metastasis, clonogenic metastasis assay; format: in vivo, Balb/c mice; settings: FIG. 11; daily i.p. 8 mg/kg/mouse, sacrificed at day 35
Procedure: Spontaneous metastases were measured by adapting methods described previously by Pulaski and Ostrand-Rosenberg (Cancer Research 58, 1486-1493, 1998). 4T1 tumor cells (1×10^5 cells in 100 μl 1×PBS) were injected s.c. in the abdominal mammary gland of 8-10 weeks old female Balb/c mice. Three days after 4T1 injection, mice received daily i.p. administration of compound 14 (8 mg/kg/mouse) or PBS (control). Mice were monitored over the time for weight loss and sacrificed at day 35. Lungs and liver were removed from each mouse, and treated as follows: liver samples were finely minced and digested with an enzyme solution containing 1×PBS, 0.01% BSA, 1 mg/ml hyaluronidase, and 1 mg/ml collagenase type I for 20 min at 37° C. on a platform rocker; lung samples were finely minced and digested with an enzyme cocktail containing 1×PBS, 1 mg/ml collagenase type IV and 10 units/ml elastase for 1 h at […] on a rotating wheel. At the end, samples were filtered through 70 μm nylon cell strainers and washed three times with 1×PBS. The resulting cell preparations were resuspended and plated neat or serially diluted in 10-cm tissue culture dishes in 20 ml of medium containing 60 μM 6-thioguanine. Suspensions were incubated in 10% CO2-air atmosphere at 37° C. for clonogenic growth. […] Total colony-forming cells were calculated on a per-organ basis. […]

CT26-derived tumors = assay: In vivo formation of CT26-derived tumors; design: species or system Balb/c mice; settings: for mice with CT26-derived macroscopic tumors: fourteen days after injection (control 10/10)
Procedure: (§1) CT26 cells (1×10^5 cells in 300 μl PBS 1×) were injected subcutaneously into the flank of Balb/c mice, whose fur was shaved and depilated. Five groups of 10 mice each were implanted with CT26. The first group received daily subcutaneously 300 μl PBS (control), the remaining groups received daily subcutaneously compound 14 at a final dose of 1, 4, 8, or 12 mg/kg/mouse dissolved in 300 μl PBS. Both compound 14 and PBS were administered starting on day 3. Further experimentation was performed to assess whether compound 14 had anti-cancer activity when administered systemically. To this end, 3 days after the CT26 inoculation, mice were injected with PBS or compound 14 (8 mg/kg/mouse) intraperitoneally. As a control, mice received subcutaneously compound 14 (8 mg/kg/mouse). Mice were monitored over the time for weight loss. After 2 weeks, mice were sacrificed, tumors were photographed, then excised and their mass calculated according to the following formula: ½×(short diameter)×(long diameter)×(height). Total extracts were prepared from xenografts and analyzed for cyclin D1 protein content by Western blotting using a commercially available antibody (Santa Cruz Biotechnology). To examine whether compound 14 was able to reduce the growth of established CRC xenografts, Balb/c mice were implanted with CT26 as described above. After 2 weeks, mice with similar tumor size, determined by caliper measurements, were divided into three groups of 8 mice each. The first group received daily subcutaneously 300 μl PBS (control), the second group received daily subcutaneously 5-ASA (80 mg/kg) dissolved in 300 μl PBS. The last group received daily subcutaneously compound 14 (8 mg/kg) dissolved in 300 μl PBS. Mice were monitored over the time for weight loss. After 2 weeks, mice were sacrificed, tumors were photographed, then excised and their mass calculated as described above. Studies were approved by the Local Ethical Committee.

[1] = test system: established CT26-derived tumors; assay: Growth of established CT26 xenografts; format: in vivo, Balb/c mice; settings: FIG. 7D; subcutaneously 8 mg/kg mouse/day for 2 weeks from day 14
Procedure: as §1, with “To this end, 3 days after the CT26 inoculation, mice were injected with PBS or compound 14 (8 mg/kg/mouse) intraperitoneally. As a control, mice received subcutaneously compound 14 (8 mg/kg/mouse).” left out, “To examine whether compound 14 was able to reduce the growth of established CRC xenografts, Balb/c mice were implanted with CT26 as described above.” left out, “The first group received daily subcutaneously 300 μl PBS (control), the second group received daily subcutaneously 5-ASA (80 mg/kg) dissolved in 300 μl PBS. The last group received daily subcutaneously compound 14 (8 mg/kg) dissolved in 300 μl PBS.” left out, “[…] Mice” for “Studies”, “monitored over” for “approved by”, “time and sacrificed at day 28.” for “Local Ethical Committee.”

COc1ccc(N)cc1C(=O)NO [compound 14, 2-methoxy-5-amino-N-hydroxybenzamide]
number of liver metastatic tumor cells (4T1-derived metastasis): reduction
number of lung metastatic tumor cells (4T1-derived metastasis): reduction
in-vivo formation of CT26-derived tumors (CT26-derived tumors; FIG. 7A, daily subcutaneously 1, 4, 8, or 12 mg/kg/mouse): dose-dependently reduces
CT26-derived xenografts (CT26-derived tumors; FIG. 7B, intra-peritoneally 8 mg/kg/mouse): inhibits
cyclin D1 protein expression in xenografts (CT26-derived tumors; FIG. 7C, Western blotting, two different doses): reduced
body weight loss (CT26-derived tumors; during the study, treated groups): No body weight loss
tumor mass in comparison to controls (CT26-derived tumors; given subcutaneously or intraperitoneally): significant decrease
mice with CT26-derived macroscopic tumors (CT26-derived tumors; intraperitoneally): 7/10
histological analysis of liver, kidney, spleen, and colon (CT26-derived tumors; mice receiving compound): no morphological alteration
survival (CT26-derived tumors; mouse, in vivo): all animals survived
mice with CT26-derived macroscopic tumors (CT26-derived tumors; subcutaneously): 5/10
tumor size of established CT26-derived tumors vs PBS [1]: significantly reduced
